ChEMBL document CHEMBL1201862, “PubChem BioAssay data set” (2004)
Activity calls are given as the source filed them.

Legend:
[1] = molecular target: T1, DNA dC->dU-editing enzyme APOBEC-3G (Homo sapiens, UniProt Q9HC16); experiment: Dose Response confirmation of small molecule APOBEC3G DNA Deaminase Inhibitors via a fluorescence-based single-stranded DNA deaminase assay. [Related pubchem assays (depositor defined):AID493012, AID493028]; type: functional
HEK293 = experiment: EBV LMP1 TES2 canonical NF-kB signalling blockers – cell-based, HEK293, luciferase, cherry-pick, dose response (AID 588343); type: functional; details: Homo sapiens
[2] = molecular target: T2, Carboxy-terminal domain RNA polymerase II polypeptide A small phosphatase 1 (Homo sapiens, UniProt Q9GZU7); experiment: CTDSP1 inhibitors, concentration-response, biochemical, absorbance readout, ultra-high-throughput screen actives (AID 540297); type: functional
T2 sequence (Q9GZU7 whole entry): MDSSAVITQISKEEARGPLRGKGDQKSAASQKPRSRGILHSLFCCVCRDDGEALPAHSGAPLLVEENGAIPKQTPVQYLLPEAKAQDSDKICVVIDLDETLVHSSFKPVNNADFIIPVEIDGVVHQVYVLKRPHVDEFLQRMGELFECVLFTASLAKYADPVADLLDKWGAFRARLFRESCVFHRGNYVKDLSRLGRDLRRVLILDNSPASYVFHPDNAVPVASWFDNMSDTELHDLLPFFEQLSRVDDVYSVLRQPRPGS

Caspase-6 = molecular target: T3, Caspase-6 (Homo sapiens, UniProt P55212); experiment: inhibition of CASP6 peptide cleavage – biochemical, VEID-R110 fluorescence, cherry-pick, dose response (AID 720632)
T3 sequence (P55212 whole entry): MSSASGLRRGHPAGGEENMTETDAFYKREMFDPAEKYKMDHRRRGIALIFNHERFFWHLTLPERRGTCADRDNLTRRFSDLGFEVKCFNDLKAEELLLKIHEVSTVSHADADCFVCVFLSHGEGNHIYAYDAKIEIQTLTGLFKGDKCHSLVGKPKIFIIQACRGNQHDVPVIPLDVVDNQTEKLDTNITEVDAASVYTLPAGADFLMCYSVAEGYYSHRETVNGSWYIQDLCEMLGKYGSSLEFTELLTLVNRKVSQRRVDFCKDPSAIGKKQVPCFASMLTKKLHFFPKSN

[3] = A cytotoxicity screen of small molecule inhibitors of the PhoP region in Salmonella typhi identified in the primary screen. [Related pubchem assays: 1850, 1864, 1985 ]; type: functional
Cytochrome P450 2C19 = Cytochrome P450 2C19 (Homo sapiens, UniProt P33261); experiment: Cytochrome panel assay with activity outcomes. Panel member name: p450-cyp2c19 Compounds with AC50 equal or less than 10 uM are considered active; type: functional
Cytochrome P450 2C19, sequence (P33261 whole entry): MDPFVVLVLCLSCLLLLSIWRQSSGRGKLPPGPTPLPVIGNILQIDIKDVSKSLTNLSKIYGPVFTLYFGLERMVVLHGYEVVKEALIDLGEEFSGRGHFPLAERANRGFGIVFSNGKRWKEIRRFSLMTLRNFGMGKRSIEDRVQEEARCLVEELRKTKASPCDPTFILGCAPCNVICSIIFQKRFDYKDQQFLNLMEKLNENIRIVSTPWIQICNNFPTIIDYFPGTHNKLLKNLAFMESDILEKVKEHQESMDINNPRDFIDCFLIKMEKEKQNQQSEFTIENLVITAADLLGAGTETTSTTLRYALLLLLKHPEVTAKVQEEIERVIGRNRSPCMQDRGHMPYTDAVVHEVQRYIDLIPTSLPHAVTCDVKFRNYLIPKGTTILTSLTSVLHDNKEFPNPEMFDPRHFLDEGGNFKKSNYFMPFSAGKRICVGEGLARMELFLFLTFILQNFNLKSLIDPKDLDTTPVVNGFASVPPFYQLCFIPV

Cytochrome P450 3A4 = Cytochrome P450 3A4 (Homo sapiens, UniProt P08684);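 further: CYP3A4 tested as one member of a cytochrome P450 panel screen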
Cytochrome P450 3A4, sequence (P08684 whole entry): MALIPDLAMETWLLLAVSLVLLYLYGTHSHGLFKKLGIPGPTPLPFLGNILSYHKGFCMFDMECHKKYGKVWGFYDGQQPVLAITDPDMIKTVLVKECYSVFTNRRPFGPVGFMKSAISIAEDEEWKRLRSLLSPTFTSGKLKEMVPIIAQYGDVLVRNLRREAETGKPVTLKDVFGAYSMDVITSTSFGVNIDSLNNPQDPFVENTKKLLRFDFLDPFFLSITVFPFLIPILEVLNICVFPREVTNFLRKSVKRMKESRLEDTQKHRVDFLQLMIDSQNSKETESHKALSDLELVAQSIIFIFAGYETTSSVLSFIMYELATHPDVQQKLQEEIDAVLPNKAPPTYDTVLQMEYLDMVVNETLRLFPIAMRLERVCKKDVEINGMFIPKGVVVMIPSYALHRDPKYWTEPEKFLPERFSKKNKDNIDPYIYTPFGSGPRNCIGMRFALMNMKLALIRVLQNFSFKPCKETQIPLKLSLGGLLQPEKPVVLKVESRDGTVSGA

Cytochrome P450 2C9 [4] = molecular target: T4, Cytochrome P450 2C9 (Homo sapiens, UniProt P11712)
T4 sequence (P11712 whole entry): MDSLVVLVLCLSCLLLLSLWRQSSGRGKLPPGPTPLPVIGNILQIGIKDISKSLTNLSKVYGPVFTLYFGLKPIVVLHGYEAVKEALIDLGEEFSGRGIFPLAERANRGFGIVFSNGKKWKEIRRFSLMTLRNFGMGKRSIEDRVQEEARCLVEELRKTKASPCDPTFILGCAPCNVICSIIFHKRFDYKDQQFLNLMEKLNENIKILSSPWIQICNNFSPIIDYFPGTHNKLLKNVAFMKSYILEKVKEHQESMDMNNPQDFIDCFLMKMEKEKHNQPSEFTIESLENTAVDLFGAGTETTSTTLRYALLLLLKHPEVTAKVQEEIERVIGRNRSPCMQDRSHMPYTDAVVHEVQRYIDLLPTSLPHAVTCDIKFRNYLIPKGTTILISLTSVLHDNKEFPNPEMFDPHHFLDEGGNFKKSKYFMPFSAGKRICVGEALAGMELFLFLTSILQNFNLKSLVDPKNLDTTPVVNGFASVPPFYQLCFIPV

[5] = molecular target: Glyceraldehyde-3-phosphate dehydrogenase (Homo sapiens, UniProt P04406)
Glyceraldehyde-3-phosphate dehydrogenase, sequence (P04406 whole entry): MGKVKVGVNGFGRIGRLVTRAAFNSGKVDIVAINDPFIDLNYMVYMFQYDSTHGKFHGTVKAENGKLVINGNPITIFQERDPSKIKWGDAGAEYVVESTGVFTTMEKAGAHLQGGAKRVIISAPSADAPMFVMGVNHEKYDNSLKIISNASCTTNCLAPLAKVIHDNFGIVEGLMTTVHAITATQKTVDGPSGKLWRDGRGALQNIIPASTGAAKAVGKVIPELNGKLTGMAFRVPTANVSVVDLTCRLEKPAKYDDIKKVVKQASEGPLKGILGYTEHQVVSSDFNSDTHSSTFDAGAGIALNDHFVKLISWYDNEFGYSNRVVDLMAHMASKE

Cytochrome P450 1A2 = molecular target: T5, Cytochrome P450 1A2 (Homo sapiens, UniProt P05177);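 further: PubChem cytochrome P450 panel assay, CYP1A2 panel member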
T5 sequence (P05177 whole entry): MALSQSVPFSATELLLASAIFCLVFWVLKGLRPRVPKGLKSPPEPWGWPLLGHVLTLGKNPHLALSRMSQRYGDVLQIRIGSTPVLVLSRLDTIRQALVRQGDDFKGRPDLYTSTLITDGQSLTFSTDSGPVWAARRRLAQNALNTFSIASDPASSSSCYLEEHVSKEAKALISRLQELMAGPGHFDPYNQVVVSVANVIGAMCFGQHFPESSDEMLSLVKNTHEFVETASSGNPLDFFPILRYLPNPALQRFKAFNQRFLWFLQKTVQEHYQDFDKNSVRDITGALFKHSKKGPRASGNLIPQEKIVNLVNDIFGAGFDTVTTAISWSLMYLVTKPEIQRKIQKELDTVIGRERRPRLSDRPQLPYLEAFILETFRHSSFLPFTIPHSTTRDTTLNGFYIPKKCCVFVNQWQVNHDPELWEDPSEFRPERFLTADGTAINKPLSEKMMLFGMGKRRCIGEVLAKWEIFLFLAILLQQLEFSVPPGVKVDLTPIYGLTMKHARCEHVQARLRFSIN

Cytochrome P450 2C9 [6] = molecular target: T4, Cytochrome P450 2C9; remark: listed apart in the source
Prothrombin = Prothrombin (Homo sapiens, UniProt P00734); experiment: Thrombin 1536 HTS Dose Response Confirmation. [Related pubchem assays: 1046 (Thrombin 1536 HTS; hits were confirmed in this assay)]; type: functional
[7] = molecular target: Induced myeloid leukemia cell differentiation protein Mcl-1 (Homo sapiens, UniProt Q07820); type: functional
Induced myeloid leukemia cell differentiation protein Mcl-1, sequence (Q07820 whole entry): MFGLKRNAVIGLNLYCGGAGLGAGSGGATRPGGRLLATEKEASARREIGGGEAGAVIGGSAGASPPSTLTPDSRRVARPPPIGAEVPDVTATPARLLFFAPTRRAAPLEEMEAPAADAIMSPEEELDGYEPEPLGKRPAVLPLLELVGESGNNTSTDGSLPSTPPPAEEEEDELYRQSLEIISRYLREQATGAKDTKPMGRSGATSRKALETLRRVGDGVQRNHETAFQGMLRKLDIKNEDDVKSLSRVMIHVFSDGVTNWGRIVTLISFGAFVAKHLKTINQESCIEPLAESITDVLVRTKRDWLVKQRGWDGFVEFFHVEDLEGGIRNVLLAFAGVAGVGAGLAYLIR

[8] = molecular target: DNA dC->dU-editing enzyme APOBEC-3A (Homo sapiens, UniProt P31941); experiment: Dose Response confirmation of small molecule APOBEC3A DNA Deaminase Inhibitors via a fluorescence-based single-stranded DNA deaminase assay. [Related pubchem assays (depositor defined):AID493011, AID493024]; type: functional
DNA dC->dU-editing enzyme APOBEC-3A, sequence (P31941 whole entry): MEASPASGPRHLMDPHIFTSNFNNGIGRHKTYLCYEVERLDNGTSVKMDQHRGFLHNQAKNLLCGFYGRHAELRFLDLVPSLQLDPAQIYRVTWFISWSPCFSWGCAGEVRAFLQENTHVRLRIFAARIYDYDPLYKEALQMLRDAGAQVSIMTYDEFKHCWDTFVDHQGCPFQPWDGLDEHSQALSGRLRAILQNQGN

[9] = molecular target: T1, DNA dC->dU-editing enzyme APOBEC-3G; type: functional
[10] = reduction of Shn3 3'UTR-driven luciferase in osteoblasts – cell-based, Clone20 osteoblasts, firefly luciferase, cherry-picked, dose response (AID 624132); type: functional;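 further: firefly luciferase luminescence from reporter carrying the Shn3 3'UTR in osteoblasts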
[11] = loss of viability in HepG2 cells – cell-based, CellTiter-Glo, cherry-picked, cytotoxicity control for Shn3 inhibitor project, dose response (AID 624134); type: functional
[12] = non-specific 3'UTR reporter inhibition in Clone20-Shn3RL – cell-based, Renilla luciferase, cherry-picked, counter-screen for Shn3 inhibitor project, dose response (AID 624133); type: functional
Paired box protein Pax-8 = Paired box protein Pax-8 (Homo sapiens, UniProt Q06710); experiment: PAX8 transcriptional activity inhibition in RMG-I – RMG-I cells, luciferase, cherry-pick, dose response (AID 687027); type: functional, cell-based;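 further: luciferase reporter driven by Pax8 target thyroperoxidase promoter measured by SteadyGlo luminescence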
Paired box protein Pax-8, sequence (Q06710 whole entry): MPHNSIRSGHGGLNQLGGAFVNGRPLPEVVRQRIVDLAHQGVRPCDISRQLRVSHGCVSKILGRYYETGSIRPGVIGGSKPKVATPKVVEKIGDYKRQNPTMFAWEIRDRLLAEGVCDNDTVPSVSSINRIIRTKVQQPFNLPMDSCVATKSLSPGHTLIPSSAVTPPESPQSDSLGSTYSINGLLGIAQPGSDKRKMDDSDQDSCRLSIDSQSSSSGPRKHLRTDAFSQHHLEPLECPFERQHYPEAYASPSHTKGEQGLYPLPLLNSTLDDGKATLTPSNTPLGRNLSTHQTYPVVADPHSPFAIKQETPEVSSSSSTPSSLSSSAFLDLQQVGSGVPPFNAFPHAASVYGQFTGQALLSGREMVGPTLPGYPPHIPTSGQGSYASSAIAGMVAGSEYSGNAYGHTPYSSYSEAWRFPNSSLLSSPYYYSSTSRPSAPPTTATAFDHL

[13] = OVCAR8 cell viability loss – plate reader, dry powder samples, PAX8 project, dose response (AID 743197); type: functional, cell-based; details: OVCAR-8

T1 sequence (Q9HC16 whole entry): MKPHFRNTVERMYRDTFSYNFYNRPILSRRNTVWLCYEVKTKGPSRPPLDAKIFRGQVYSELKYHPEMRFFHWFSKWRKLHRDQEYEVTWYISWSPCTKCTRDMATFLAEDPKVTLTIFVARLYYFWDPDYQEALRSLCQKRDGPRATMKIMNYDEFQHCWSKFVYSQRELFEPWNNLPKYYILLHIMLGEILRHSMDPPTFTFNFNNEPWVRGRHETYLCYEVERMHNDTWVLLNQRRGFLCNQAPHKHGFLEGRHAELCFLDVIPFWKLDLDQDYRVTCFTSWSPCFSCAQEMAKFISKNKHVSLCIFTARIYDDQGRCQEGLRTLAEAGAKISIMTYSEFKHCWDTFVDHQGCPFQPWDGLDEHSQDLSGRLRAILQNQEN

In the case of `CC(C)Cn1c(S)nnc1-c1ccc(F)cc1`, the IC50 [1] is reported as 9.54 µM (active).

In the case of `O=C(NOCc1ccccc1)c1ccc(Cl)cc1Cl`, the AC50 (HEK293) is reported as 3.33 µM (active).

For `O=S(=O)(Nc1ccccc1Cl)c1cccc2nsnc12`, the IC50 [2] was 11.2 µM (active) and the AC50 (Caspase-6) was 25.9 µM (active).

In the case of `CN1C(=O)NC(c2ccc(O)cc2)C(C(=O)c2cccs2)C1(O)C(F)(F)F` (stereo not drawn), the EC50 [3] is reported as > 50 µM (active), the AC50 (Cytochrome P450 2C19; read-out: AC50) is reported as 15.8 µM (inconclusive) and the AC50 (Cytochrome P450 3A4) is reported as 25.1 µM (inconclusive). For the same compound, the AC50 (Cytochrome P450 2C9 [4]) was 39.8 µM (inconclusive).

For `Cc1ccc(NC(=O)c2sccc2C)cc1[N+](=O)[O-]`, the EC50 [3] was > 50 µM (active).

With `C=CCc1cccc2cc(C(=O)Nc3cccc(C(=O)O)c3)c(=O)oc12` the IC50 [5] was > 100 µM (not active).

In the case of `CCCCC(=O)NC(=S)Nc1cccc(NC(=O)CC)c1`, the AC50 (Cytochrome P450 1A2) is reported as 15.8 µM (inconclusive), the AC50 (Cytochrome P450 3A4) is reported as 20 µM (inconclusive) and the AC50 (Cytochrome P450 2C9 [6]) is reported as “inconclusive”.

For `CCN1CCN(CC(=O)c2cc(OC)c(OC)c(OC)c2)CC1`, the IC50 (Prothrombin) was > 50 µM (not active).

For `COc1cc(C2C3=C(O)c4ccccc4C3=Nc3nc(N)nc(O)c32)ccc1O` (stereo not drawn), the IC50 [7] was 2.76 µM (active).

With `CC(C[N+](C)(C)C)OC(=O)C1(c2ccccc2)CCCC1` (stereo not drawn) the IC50 [8] was 2.56 µM (active) and the IC50 [9] was 3.58 µM (active).

With `CN(C)c1ccc(C=Cc2ccnc3c(O)cccc23)cc1` the AC50 (HEK293) was 10 µM (active), the AC50 [10] was 1.43 µM (active) and the AC50 [11] was 52.7 µM (active). For the same compound, the AC50 [12] was 2.57 µM (active).

For `Cc1ccc(S(=O)(=O)Nc2csc(C)c2C(=O)O)cc1`, the IC50 [2] was 3.94 µM (active) and the AC50 (Caspase-6) was 4.99 µM (active).

With `COc1ccc(CN2[C@H](CO)[C@H]3c4ccccc4NC[C@H]32)cc1` the AC50 (Paired box protein Pax-8) was 11.2 µM (active) and the AC50 [13] was > 70 µM (inactive).

For `CCN1C[C@]2(COC(=O)c3ccccc3N3C(=O)C[C@H](C)C3=O)CC[C@H](OC)[C@]34[C@@H]5C[C@@H]6[C@H](OC)[C@H]5[C@](O)(C[C@@H]6OC)C(O)([C@@H]13)[C@@H](OC)[C@@H]24`, the AC50 (Cytochrome P450 1A2) was 39.8 µM (inconclusive) and the AC50 (Cytochrome P450 2C9 [6]) was “inconclusive”.

In the case of `O=[N+]([O-])c1ccc(N2CCNCC2)cc1NCc1cccnc1`, the EC50 [3] is reported as > 50 µM (active).

In the case of `CO[C@H]1CN(C)C(=O)c2ccc(NS(=O)(=O)c3cccc(Cl)c3)cc2OC[C@@H](C)NC[C@H]1C`, the AC50 (Caspase-6) is reported as 19.7 µM (active).

For `CCCCN1CCC(COC(=O)c2cc(Cl)c(N)c3c2OCCO3)CC1`, the AC50 (Cytochrome P450 3A4) was 3.16 µM (inconclusive) and the AC50 (Cytochrome P450 2C9 [6]) was “inconclusive”.

With `Cn1cnc(CCN)c1` [N-METHYLHISTAMINE] the AC50 (Cytochrome P450 2C19) was “inconclusive” and the AC50 (Cytochrome P450 2C9 [6]) was “inconclusive”.
